This note sets out measurements from patent US20030083469A1, “Allosteric control of nuclear hormone receptors” (The Salk Institute for Biological Studies, priority 1995, published 2003).

One test addresses T1, GAL-T3R + RXR LBD (Homo sapiens, UniProt P19793).
T1 construct: or the human RXRα LBD (Glu 203 -Thr 462); expressed in transfected cells; host or cells: CV-1
T1 sequence (P19793 203-462): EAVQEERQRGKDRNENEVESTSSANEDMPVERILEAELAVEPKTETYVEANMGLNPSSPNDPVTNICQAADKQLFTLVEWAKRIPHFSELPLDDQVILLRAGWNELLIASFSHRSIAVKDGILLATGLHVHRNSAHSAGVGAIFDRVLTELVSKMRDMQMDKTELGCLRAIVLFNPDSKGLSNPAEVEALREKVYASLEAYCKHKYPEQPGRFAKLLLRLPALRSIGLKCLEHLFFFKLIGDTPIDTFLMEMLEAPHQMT
T1 sequence (P10828 178-461 partner): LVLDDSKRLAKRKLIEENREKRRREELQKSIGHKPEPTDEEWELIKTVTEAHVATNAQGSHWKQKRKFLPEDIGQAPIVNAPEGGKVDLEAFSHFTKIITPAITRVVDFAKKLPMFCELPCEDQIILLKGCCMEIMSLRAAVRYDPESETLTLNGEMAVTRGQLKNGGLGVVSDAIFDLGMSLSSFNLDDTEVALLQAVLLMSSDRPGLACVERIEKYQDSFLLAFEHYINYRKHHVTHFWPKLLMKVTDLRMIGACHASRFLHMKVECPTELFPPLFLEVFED
The test is described as follows: Transient transfection of GAL-T3R chimera with RXR LBD. It is filed as cell-based. The conditions noted are these: 100 nM LG69. As for the experimental part: CV-1 cells were grown in Dulbecco's Modified Eagle's medium supplemented with 10% resin-charcoal stripped (Samuels et al., Endocrinology 105:80-85 (1979)) fetal bovine serum, 50 U/ml penicillin G and 50 μg/ml streptomycin sulfate (DMEM-FBS) at 37° C. in 5% CO2. One day prior to transfection, cells were plated to 50-80% confluence using phenol-red free DMEM-FBS. Cells were transfected by lipofection using N-{2-(2,3)-dioleoyloxy)propyl-N,N,N-trimethyl ammonium methyl sulfate} according to the manufacturer's instructions (DOTAP, Boehringer Mannheim). […] Cells were harvested and assayed for luciferase and β-galactosidase activity. All points were performed in triplicate in each experiment and varied by less than 10%. Each experiment was repeated three or more times with similar results.
Since RXR serves as a silent partner in the T3R and RAR pathways, it was next investigated whether RXR could serve as an active component in other complexes. To search for such complexes, the LBD of a number of nuclear receptors were fused to the GAL4 DBD, and tested to determine whether the RXR LBD could confer LG69 responsiveness upon these GAL-LBD chimeras. […] Normalized luciferase activity was determined and plotted as fold-activation relative to untreated cells.

The next test addresses T2, T3R-RXR heterodimers (Homo sapiens, UniProt P10828+P19793).
T2 construct: transient transfection analysis of full-length Nurrl and/or RXR; expressed in transfected cells; host or cells: CV-1
T2 sequence (P10828 1-461): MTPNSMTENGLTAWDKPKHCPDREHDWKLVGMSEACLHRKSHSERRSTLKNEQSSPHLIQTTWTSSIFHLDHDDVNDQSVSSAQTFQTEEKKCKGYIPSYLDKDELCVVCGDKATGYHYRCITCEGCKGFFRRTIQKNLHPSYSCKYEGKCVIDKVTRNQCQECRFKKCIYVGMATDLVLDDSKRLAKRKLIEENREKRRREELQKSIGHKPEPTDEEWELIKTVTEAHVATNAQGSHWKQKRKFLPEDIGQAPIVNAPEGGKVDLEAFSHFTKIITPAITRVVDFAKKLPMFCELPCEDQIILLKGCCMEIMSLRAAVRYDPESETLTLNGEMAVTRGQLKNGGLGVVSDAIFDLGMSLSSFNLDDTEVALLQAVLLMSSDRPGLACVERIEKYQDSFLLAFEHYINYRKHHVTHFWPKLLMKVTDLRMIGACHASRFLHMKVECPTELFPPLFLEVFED
T2 sequence (P19793 1-462): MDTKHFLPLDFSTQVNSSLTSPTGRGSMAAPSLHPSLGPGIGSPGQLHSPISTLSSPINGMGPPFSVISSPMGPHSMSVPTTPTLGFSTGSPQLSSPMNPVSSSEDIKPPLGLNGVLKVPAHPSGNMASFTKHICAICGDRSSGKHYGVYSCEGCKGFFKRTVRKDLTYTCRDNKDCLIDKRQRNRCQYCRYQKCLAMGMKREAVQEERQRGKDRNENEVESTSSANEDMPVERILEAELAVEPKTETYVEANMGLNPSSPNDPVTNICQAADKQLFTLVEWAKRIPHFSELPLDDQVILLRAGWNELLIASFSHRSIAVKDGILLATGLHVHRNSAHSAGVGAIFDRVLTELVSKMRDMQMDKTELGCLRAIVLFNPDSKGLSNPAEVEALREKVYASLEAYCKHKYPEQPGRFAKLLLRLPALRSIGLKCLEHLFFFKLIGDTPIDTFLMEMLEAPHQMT
The test can be described thus: Transient transfection analysis of T3R-RXR heterodimers (TK-LUC reporter, CV-1 cells). In kind it is cell-based. As for the experimental part:
One day prior to transfection, cells were plated to 50-80% confluence using phenol-red free DMEM-FBS. Cells were transfected by lipofection using N-{2-(2,3)-dioleoyloxy)propyl-N,N,N-trimethyl ammonium methyl sulfate} according to the manufacturer's instructions (DOTAP, Boehringer Mannheim).
Since T3R and RAR function as heterodimers with RXR, RXR responsiveness was examined in the context of RXR-T3R and RXR-RAR heterodimers. Attention is directed to FIG. 2, wherein transient transfection analysis of T^3R-RXR and RAR-RXR heterodimers is described. Reporter constructs employed contain the HRE indicated in the figure, cloned upstream of the TK-LUC reporter. In the left panel of the figure, CV-1 cells were transfected with the following plasmids: HRE×2 - TK-LUC (300 ng/10^5 cells), CMX-hT3Rβ (20 ng/10^5 cells), CMX-hRXRα (20 ng/10^5 cells) and the internal control CMX-βgal (500 ng/10^5 cells) .

Take `CC=C(c1ccc(C(=O)O)cc1)c1cc2c(cc1C)C(C)(C)CCC2(C)C` [LG69, 4-{1-(3,5,5,8,8-pentamethyl-5,6,7,8-tetrahydro-2-napthalenyl)-1-propenyl}benzoic acid]: on GAL-T3R + RXR LBD, the LG69 responsiveness entry is “not seen”. Also, on T3R-RXR heterodimers (100 nM T3+100 nM LG69 versus T3 alone), the “effect of LG69 added to T3 on the response to T3” value is recorded as “somewhat reduced”. Also, on T3R-RXR heterodimers (CV-1 cells transfected with T3Rβ and RXRα, 100 nM T3 or 100 nM LG69), the “responsiveness of transfected cells to ligand (luciferase fold-activation)” value is “not responsive”.
